Experimental data published in ChEMBL document CHEMBL1126071, “Cyclic pentapeptide endothelin antagonists with high ETA selectivity. Potency- and solubility-enhancing modifications” (J Med Chem, 1992).
Residues, ends and D or L forms follow the SMILES beside them.

Target: T1, Endothelin-1 receptor (Sus scrofa, UniProt Q29010)
T1 sequence (Q29010 whole entry): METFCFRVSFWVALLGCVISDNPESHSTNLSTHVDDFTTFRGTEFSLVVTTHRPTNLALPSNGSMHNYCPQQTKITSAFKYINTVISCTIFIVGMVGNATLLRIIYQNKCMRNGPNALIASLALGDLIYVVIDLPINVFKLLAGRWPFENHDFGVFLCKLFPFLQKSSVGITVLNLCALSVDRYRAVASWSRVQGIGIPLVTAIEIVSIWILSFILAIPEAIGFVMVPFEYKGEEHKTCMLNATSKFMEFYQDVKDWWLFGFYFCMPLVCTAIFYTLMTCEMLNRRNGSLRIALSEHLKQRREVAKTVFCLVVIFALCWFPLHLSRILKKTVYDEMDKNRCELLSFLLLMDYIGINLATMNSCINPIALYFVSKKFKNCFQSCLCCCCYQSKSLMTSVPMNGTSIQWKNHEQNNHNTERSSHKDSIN
Experiment: Binding activity against Endothelin A receptor of Porcine aortic smooth muscle membranes

| SMILES | IC50 max [µM] |
| --- | --- |
| CC[C@H](C)[C@H]1NC(=O)[C@H](C)NC(=O)[C@@H](CCC(=O)O)NC(=O)[C@@H](Cc2c[nH]c3ccccc23)NC(=O)[C@H](CC(C)C)NC1=O (HELM PEPTIDE1{A.[CC[C@H](C)[C@@H](N[*:1])C(=O)[*:2]].L.[dW].[dE]}$PEPTIDE1,PEPTIDE1,1:R1-5:R2$$$V2.0) | 1.4 |
| CC(C)C[C@@H]1NC(=O)[C@@H](C(C)C)NC(=O)[C@H](C)NC(=O)[C@@H](CC(=O)O)NC(=O)[C@@H](Cc2c[nH]c3ccccc23)NC1=O (HELM PEPTIDE1{A.[dV].L.[dW].[dD]}$PEPTIDE1,PEPTIDE1,1:R1-5:R2$$$V2.0) | 0.11 |
| CC(C)C[C@@H]1NC(=O)[C@@H](C(C)C)NC(=O)[C@H](C)NC(=O)[C@@H](CCC(=O)O)NC(=O)[C@@H](Cc2c[nH]c3ccccc23)NC1=O (HELM PEPTIDE1{A.[dV].L.[dW].[dE]}$PEPTIDE1,PEPTIDE1,1:R1-5:R2$$$V2.0) | 3 |
| CC(C)C[C@@H]1NC(=O)[C@@H](C(C)C)NC(=O)CN(C)C(=O)[C@@H](CC(=O)O)NC(=O)[C@@H](Cc2c[nH]c3ccccc23)NC1=O (HELM PEPTIDE1{L.[dW].[dD].[Sar].[dV]}$PEPTIDE1,PEPTIDE1,1:R1-5:R2$$$V2.0) | 0.032 |
| CC(C)C[C@@H]1NC(=O)[C@@H](C(C)C)NC(=O)[C@H](C)N(C)C(=O)[C@@H](CC(=O)O)NC(=O)[C@@H](Cc2c[nH]c3ccccc23)NC1=O (HELM PEPTIDE1{L.[dW].[dD].[meA].[dV]}$PEPTIDE1,PEPTIDE1,1:R1-5:R2$$$V2.0) | 0.034 |

Results, then the molecule that gave them:

| IC50 max [µM] | SMILES |
| --- | --- |
| 8.5 | CC(C)[C@H]1NC(=O)[C@H](C)NC(=O)[C@@H](CC(=O)O)NC(=O)[C@@H](Cc2c[nH]c3ccccc23)NC(=O)[C@@H]2CCCN2C1=O (HELM PEPTIDE1{A.[dV].P.[dW].[dD]}$PEPTIDE1,PEPTIDE1,1:R1-5:R2$$$V2.0) |
| 0.022 | CC(C)C[C@@H]1NC(=O)[C@@H](C(C)C)NC(=O)[C@@H]2CCCN2C(=O)[C@@H](CC(=O)O)NC(=O)[C@@H](Cc2c[nH]c3ccccc23)NC1=O (HELM PEPTIDE1{L.[dW].[dD].P.[dV]}$PEPTIDE1,PEPTIDE1,1:R1-5:R2$$$V2.0) |
| 0.41 | CC(C)C[C@@H]1NC(=O)[C@@H](C(C)C)NC(=O)[C@@H]2CCCN2C(=O)[C@@H](CCC(=O)O)NC(=O)[C@@H](Cc2c[nH]c3ccccc23)NC1=O (HELM PEPTIDE1{L.[dW].[dE].P.[dV]}$PEPTIDE1,PEPTIDE1,1:R1-5:R2$$$V2.0) |
| 0.035 | CC(C)C[C@H]1C(=O)N[C@H](Cc2c[nH]c3ccccc23)C(=O)N[C@H](CC(=O)O)C(=O)N2CCC[C@H]2C(=O)N[C@H](C(C)C)C(=O)N1C (HELM PEPTIDE1{[meL].[dW].[dD].P.[dV]}$PEPTIDE1,PEPTIDE1,1:R1-5:R2$$$V2.0) |
